These results are taken from patent publication EP1935887A1, “Heterocyclic substituted carbonyl derivatives and their use as dopamine D3 receptor ligands” (Aventis Pharmaceuticals Inc., priority 2001, dated 2002).

The structures appear in SMILES notation.

T1 sequence (P35462 whole entry): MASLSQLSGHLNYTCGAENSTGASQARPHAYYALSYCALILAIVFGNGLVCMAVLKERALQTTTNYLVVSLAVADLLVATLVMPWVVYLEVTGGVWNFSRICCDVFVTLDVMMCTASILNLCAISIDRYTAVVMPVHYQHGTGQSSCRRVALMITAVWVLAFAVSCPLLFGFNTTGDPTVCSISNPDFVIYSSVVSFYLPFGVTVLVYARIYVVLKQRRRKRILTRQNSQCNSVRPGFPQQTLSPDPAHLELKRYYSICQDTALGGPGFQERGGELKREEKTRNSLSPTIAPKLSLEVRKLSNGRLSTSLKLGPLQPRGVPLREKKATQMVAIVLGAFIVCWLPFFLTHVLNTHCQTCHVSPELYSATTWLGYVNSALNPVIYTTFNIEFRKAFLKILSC

One experiment addresses T1, Cloned Human Dopamine D3 Receptors (Homo sapiens, UniProt P35462).
T1 construct: expressed in transfected cells; membrane homogenate
The experiment is described as follows: [N-Methyl-3H]Spiroperidol binding to cloned human dopamine D3 receptors. The note with it: Table 2; unit inferred; read-out: d3Ki. In outline: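 [N-methyl-3H]spiroperidol binding is run in Tris buffer, pH 7.7. Receptor source is membranes of a stably transfected, high-expressing CHO clone carrying the human D3 gene, kept at -80°C in 10% DMSO.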
Consider `CC1C(CN2CCN(c3csc4cc(C(F)(F)F)ccc34)CC2)C1C(=O)NCc1ccc(N(C)C)cc1` (stereo not shown) [compound 825871], for which the Ki amounted to 137 nM.
As to `CC1[C@@H](CN2CCN(c3csc4cc(C(F)(F)F)ccc34)CC2)[C@@H]1C(=O)NCC1CC1` (stereo partly shown) [compound 825872], the Ki was 104 nM.
The same measure, in the same setting: as for `C[C@@]1(C(=O)NCc2ccc3ccccc3c2)C[C@H]1CN1CCN(c2csc3cc(C(F)(F)F)ccc23)CC1` [compound 825882], the figure is 186 nM; as for `C[C@@]1(C(=O)NCc2ccc3c(c2)OCO3)C[C@H]1CN1CCN(c2csc3cc(C(F)(F)F)ccc23)CC1` [compound 825886], 40.2 nM.
In the case of `C[C@@]1(C(=O)NCc2nc3ccccc3[nH]2)C[C@H]1CN1CCN(c2csc3cc(C(F)(F)F)ccc23)CC1` [compound 825887], the Ki worked out at 90.4 nM.
Take `COc1cc(CNC(=O)[C@]2(C)C[C@H]2CN2CCN(c3csc4cc(C(F)(F)F)ccc34)CC2)cc(OC)c1OC` [compound 825888]: the Ki came out at 89.4 nM.
As for `C[C@@]1(C(=O)NC2CC2)C[C@H]1CN1CCN(c2csc3cc(C(F)(F)F)ccc23)CC1` [compound 825893], the Ki is 73.8 nM.
As for `CN(C)c1ccc(CNC(=O)[C@]2(C)C[C@H]2CN2CCN(c3csc4cc(C(F)(F)F)ccc34)CC2)cc1` [compound 825894], the Ki stood at 59 nM.
Turning to `C[C@@]1(C(=O)NCC2CC2)C[C@H]1CN1CCN(c2csc3cc(C(F)(F)F)ccc23)CC1` [compound 825895], the Ki is 31.7 nM.
On to `C[C@@]1(C(=O)NCc2ccccc2)C[C@H]1CN1CCN(c2csc3cc(C(F)(F)F)ccc23)CC1` [compound 825896], for which the Ki is 53.3 nM.
As to `C[C@@]1(C(=O)NCc2ccco2)C[C@H]1CN1CCN(c2csc3cc(C(F)(F)F)ccc23)CC1` [compound 825897], the Ki is 140 nM.
On the same count and under the same terms, with `C[C@@]1(C(=O)NCc2cccs2)C[C@H]1CN1CCN(c2csc3cc(C(F)(F)F)ccc23)CC1` [compound 825898] the figure was 49 nM; with `C[C@@]1(C(=O)NCc2ccc(C(F)(F)F)cc2)C[C@H]1CN1CCN(c2csc3cc(C(F)(F)F)ccc23)CC1` [compound 825899], 42.9 nM; with `O=C(NCc1ccccn1)[C@@H]1C[C@H]1CN1CCN(c2csc3cc(C(F)(F)F)ccc23)CC1` [compound 826065], 175 nM.
On to `CN(C)c1ccc(CNC(=O)[C@@H]2C[C@H]2CN2CCN(c3csc4cc(C(F)(F)F)ccc34)CC2)cc1` [compound 826066], for which the Ki was determined as 60.3 nM.
The same measure, in the same setting: with `O=C(NCC1CC1)[C@@H]1C[C@H]1CN1CCN(c2csc3cc(C(F)(F)F)ccc23)CC1` [compound 826067] the figure was 19.3 nM; with `O=C(NCc1ccccc1)[C@@H]1C[C@H]1CN1CCN(c2csc3cc(C(F)(F)F)ccc23)CC1` [compound 826068], 54.6 nM; with `O=C(NCc1ccco1)[C@@H]1C[C@H]1CN1CCN(c2csc3cc(C(F)(F)F)ccc23)CC1` [compound 826069], 27.2 nM.
In the case of `O=C(NCc1cccs1)[C@@H]1C[C@H]1CN1CCN(c2csc3cc(C(F)(F)F)ccc23)CC1` [compound 826070], the Ki amounted to 12.6 nM.
`O=C(NCc1ccc(C(F)(F)F)cc1)[C@@H]1C[C@H]1CN1CCN(c2csc3cc(C(F)(F)F)ccc23)CC1` [compound 826071]: the Ki stood at 165 nM.
The same measure, in the same setting: as for `Cc1cccc(CNC(=O)[C@@H]2C[C@H]2CN2CCN(c3csc4cc(C(F)(F)F)ccc34)CC2)c1` [compound 826072], the figure is 62.6 nM.
Turning to `O=C(NC1CCC1)[C@@H]1C[C@H]1CN1CCN(c2csc3cc(C(F)(F)F)ccc23)CC1` [compound 826073], the Ki worked out at 32.3 nM.
Still for that read-out and setting: as for `C[C@H](NC(=O)[C@@H]1C[C@H]1CN1CCN(c2csc3cc(C(F)(F)F)ccc23)CC1)c1ccccc1` [compound 826074], the figure is 72.6 nM.
Turning to `O=C(NCc1cccc2ccccc12)[C@@H]1C[C@H]1CN1CCN(c2csc3cc(C(F)(F)F)ccc23)CC1` [compound 826075], the Ki amounted to 55.6 nM.
As for `O=C(NC1CCCCC1)[C@@H]1C[C@H]1CN1CCN(c2csc3cc(C(F)(F)F)ccc23)CC1` [compound 826076], the Ki amounted to 15 nM.
The same measure, in the same setting: with `COc1ccc(CNC(=O)[C@@H]2C[C@H]2CN2CCN(c3csc4cc(C(F)(F)F)ccc34)CC2)c(OC)c1` [compound 826077] the figure was 88.9 nM; with `O=C(Nc1cccc2c1CCCC2)[C@@H]1C[C@H]1CN1CCN(c2csc3cc(C(F)(F)F)ccc23)CC1` [compound 826078], 162 nM.
On to `COc1cc(CNC(=O)[C@@H]2C[C@H]2CN2CCN(c3csc4cc(C(F)(F)F)ccc34)CC2)cc(OC)c1OC` [compound 826079], for which the Ki was determined as 106 nM.
For the molecule `O=C(NCCc1ccccn1)[C@@H]1C[C@H]1CN1CCN(c2csc3cc(C(F)(F)F)ccc23)CC1` [compound 826080], the Ki was 14.8 nM.
On the same count and under the same terms, with `O=C(NC1CCCCCCCC1)[C@@H]1C[C@H]1CN1CCN(c2csc3cc(C(F)(F)F)ccc23)CC1` [compound 826655] the figure was 31 nM; with `O=C(NCCN1CCOCC1)[C@@H]1C[C@H]1CN1CCN(c2csc3cc(C(F)(F)F)ccc23)CC1` [compound 826656], 45 nM.
Consider `O=C(NC1CCCC1)[C@@H]1C[C@H]1CN1CCN(c2csc3cc(C(F)(F)F)ccc23)CC1` [compound 826658], for which the Ki was 17 nM.

Staying with this experiment, now noted: Table 2 part the 10th table; read-out: d3Ki.
`C[C@@]1(C(=O)N2CCCCC2)C[C@H]1CN1CCN(c2csc3cc(C(F)(F)F)ccc23)CC1` [compound 825891]: the Ki came out at 118 nM.
Consider `O=C([C@@H]1CCC[C@H]1N1CCN(c2csc3cc(F)ccc23)CC1)N1CCCCC1` [compound 826056], for which the Ki was determined as 5.4 nM.
Consider `O=C([C@@H]1C[C@H]1CN1CCN(c2csc3cc(C(F)(F)F)ccc23)CC1)N1CCCCC1` [compound 826081], for which the Ki came to 18.6 nM.
Turning to `O=C([C@@H]1CCCC[C@@H]1CN1CCN(c2csc3cc(C(F)(F)F)ccc23)CC1)N1CCCCC1` [compound 826119], the Ki turned out to be 219 nM.
Same read-out and setting: with `O=C([C@@H]1C[C@H]1CN1CCN(c2csc3cc(C(F)(F)F)ccc23)CC1)N1CCCC1` [compound 826657] the figure was 14 nM.
Same read-out and setting: with `CCOC(=O)C1CN(C(=O)[C@@H]2C[C@H]2CN2CCN(c3csc4cc(C(F)(F)F)ccc34)CC2)CCC1=O` (stereo partly shown) [compound 826659] the figure was 140 nM; with `O=C([C@@H]1C[C@H]1CN1CCN(c2csc3cc(C(F)(F)F)ccc23)CC1)N1CCC(O)CC1` [compound 826660], 53 nM.

The same experiment, now with this note: read-out: d3Ki.
For `Cc1cccc(CNC(=O)[C@@H]2CCC[C@H]2N2CCN(c3csc4cc(F)ccc34)CC2)c1` [compound 825900], the Ki was 22.4 nM.
As for `O=C(NC1CCC1)[C@@H]1CCC[C@H]1N1CCN(c2csc3cc(F)ccc23)CC1` [compound 826057], the Ki came to 90.9 nM.
With `CC(NC(=O)[C@@H]1CCC[C@H]1N1CCN(c2csc3cc(F)ccc23)CC1)c1ccccc1` (stereo partly shown) [compound 826058], the Ki was determined as 45.2 nM.
For `O=C(NCc1cccc2ccccc12)[C@@H]1CCC[C@H]1N1CCN(c2csc3cc(F)ccc23)CC1` [compound 826059], the Ki is 27.1 nM.
With `O=C(NC1CCCCC1)[C@@H]1CCC[C@H]1N1CCN(c2csc3cc(F)ccc23)CC1` [compound 826060], the Ki came out at 40.2 nM.
Regarding `CN(C)c1ccc(CNC(=O)[C@@H]2CCCC[C@H]2CN2CCN(c3csc4cc(C(F)(F)F)ccc34)CC2)cc1` [compound 826086], the Ki was found to be 103 nM.
Regarding `Cc1cccc(CNC(=O)[C@@H]2CCCC[C@H]2CN2CCN(c3csc4cc(C(F)(F)F)ccc34)CC2)c1` [compound 826092], the Ki was determined as 293 nM.
In the case of `O=C(NCc1ccc2c(c1)OCO2)[C@@H]1CCCC[C@H]1CN1CCN(c2csc3cc(C(F)(F)F)ccc23)CC1` [compound 826098], the Ki was 451 nM.
Regarding `O=C(Nc1cccnc1)[C@@H]1CCCC[C@H]1CN1CCN(c2csc3cc(C(F)(F)F)ccc23)CC1` [compound 826100], the Ki was determined as 193 nM.
For the molecule `O=C(NCc1nc2ccccc2[nH]1)[C@@H]1CCCC[C@@H]1CN1CCN(c2csc3cc(C(F)(F)F)ccc23)CC1` [compound 826102], the Ki worked out at 210 nM.
Turning to `CN(C)c1ccc(CNC(=O)[C@@H]2CCCC[C@@H]2CN2CCN(c3csc4cc(C(F)(F)F)ccc34)CC2)cc1` [compound 826104], the Ki was 16.8 nM.
Regarding `O=C(NC1CC1)[C@@H]1CCCC[C@@H]1CN1CCN(c2csc3cc(C(F)(F)F)ccc23)CC1` [compound 826105], the Ki is 690 nM.
Same read-out and setting: as for `O=C(NCc1ccccc1)[C@@H]1CCCC[C@@H]1CN1CCN(c2csc3cc(C(F)(F)F)ccc23)CC1` [compound 826106], the figure is 230 nM.
As for `O=C(NCc1ccc(C(F)(F)F)cc1)[C@@H]1CCCC[C@@H]1CN1CCN(c2csc3cc(C(F)(F)F)ccc23)CC1` [compound 826108], the Ki is 100 nM.
As to `O=C(NC1CCCCC1)[C@@H]1CCCC[C@@H]1CN1CCN(c2csc3cc(C(F)(F)F)ccc23)CC1` [compound 826113], the Ki was determined as 200 nM.
As for `O=C(NCc1ccc2c(c1)OCO2)[C@@H]1CCCC[C@@H]1CN1CCN(c2csc3cc(C(F)(F)F)ccc23)CC1` [compound 826115], the Ki was 72.3 nM.
In the case of `COc1cc(CNC(=O)[C@@H]2CCCC[C@@H]2CN2CCN(c3csc4cc(C(F)(F)F)ccc34)CC2)cc(OC)c1OC` [compound 826116], the Ki came out at 59.9 nM.
On the same count and under the same terms, as for `O=C(NCCc1ccccn1)[C@@H]1CCCC[C@@H]1CN1CCN(c2csc3cc(C(F)(F)F)ccc23)CC1` [compound 826117], the figure is 241 nM; as for `O=C(Nc1cccnc1)[C@@H]1CCCC[C@@H]1CN1CCN(c2csc3cc(C(F)(F)F)ccc23)CC1` [compound 826118], 568 nM; as for `O=C(NCc1ccccn1)[C@@H]1CCCC[C@H]1CN1CCN(c2csc3cc(C(F)(F)F)ccc23)CC1` [compound 826120], 487 nM.
For the molecule `O=C(NC1CC1)[C@@H]1CCCC[C@H]1CN1CCN(c2csc3cc(C(F)(F)F)ccc23)CC1` [compound 826121], the Ki is 502 nM.
Still for that read-out and setting: with `O=C(NCc1ccco1)[C@@H]1CCCC[C@@H]1CN1CCN(c2csc3cc(C(F)(F)F)ccc23)CC1` [compound 826122] the figure was 130 nM.
